Laboratory results as given in ChEMBL document CHEMBL5030570, “Factor XI Activation Inhibitors for Treating Thrombosis, Embolisms, Hypercoagulability, and Fibrotic Changes” (ACS Med Chem Lett, 2022).
pEC50: −log10 of the molar value.

Target: Coagulation factor XI (Homo sapiens, UniProt P03951)
Test: Inhibition of human coagulation factor 11 assessed as inhibition of factor 12a mediated activation using z-GPR-AFC measured after 60 mins by fluorescence assay

Coagulation factor XI, sequence (P03951 19-387 limits assumed): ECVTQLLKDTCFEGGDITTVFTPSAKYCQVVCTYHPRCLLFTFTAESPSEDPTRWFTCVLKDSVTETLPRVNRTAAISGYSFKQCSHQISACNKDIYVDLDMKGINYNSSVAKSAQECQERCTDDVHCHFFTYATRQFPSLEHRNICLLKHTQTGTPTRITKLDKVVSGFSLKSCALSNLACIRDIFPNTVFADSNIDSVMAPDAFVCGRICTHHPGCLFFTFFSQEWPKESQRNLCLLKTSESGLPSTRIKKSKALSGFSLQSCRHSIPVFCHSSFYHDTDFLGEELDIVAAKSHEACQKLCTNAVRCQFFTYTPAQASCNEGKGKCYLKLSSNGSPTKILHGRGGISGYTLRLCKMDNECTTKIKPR
Coagulation factor XI, sequence (P03951 388-625 limits assumed): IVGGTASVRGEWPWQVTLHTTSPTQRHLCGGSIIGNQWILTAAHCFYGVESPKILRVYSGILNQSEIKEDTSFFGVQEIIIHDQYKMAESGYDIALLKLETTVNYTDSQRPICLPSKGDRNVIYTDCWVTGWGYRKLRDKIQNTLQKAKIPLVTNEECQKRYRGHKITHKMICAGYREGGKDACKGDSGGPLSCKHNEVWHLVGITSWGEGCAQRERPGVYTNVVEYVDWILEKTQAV

- pEC50: 8.42
SMILES: Cc1cnn(C2CCN(C(=O)c3cc(C(=O)N4CCCCC4)c4cc(OCc5ncc(C(F)(F)F)cc5Cl)ncc4c3)CC2)c1
